Experimental data published in US9302999B2, “Substituted triazoles as herbicides” (E. I. DU PONT DE NEMOURS AND COMPANY, priority 2012, dated 2016).
Where two headings read alike, the source gives them in different places.

Experiments:
Type in all cases: in vivo
[1] = system: rice (Oryza sativa); test: Test C flooded paddy test: rice; settings: scale 0 to 100 (0 no effect, 100 complete control); for plant injury at 125 g/ha / plant injury at 250 g/ha / plant injury at 31 g/ha / plant injury at 62 g/ha: Oryza sativa, read-out: Plant response rating, Rice
Summary of the method: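 Rating: visual, 0–100 (100 = complete control), versus untreated controls after 13 to 15 greenhouse days. Treatment went into paddy water held at 3 cm over the soil, on plants grown to two leaves.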

[2] = system: wheat, winter (winter wheat, Triticum aestivum); test: Test D pre-/postemergence: wheat, winter
Source text: (§1) Seeds of plant species selected from bluegrass (annual bluegrass, Poa annua), blackgrass (Alopecurus myosuroides), canarygrass (Phalaris minor), chickweed (common chickweed, Stellaria media), galium (catchweed bedstraw, Galium aparine), bromegrass, downy (downy bromegrass, Bromus tectorum), field poppy (Papaver rhoeas), field violet (Viola arvensis), foxtail, green (green foxtail, Setaria viridis), deadnettle (henbit deadnettle, Lamium amplexicaule), ryegrass, Italian (Italian ryegrass, Lolium multiflorum), kochia (Kochia scoparia), lambsquarters (Chenopodium album), oilseed rape (Brassica napus), pigweed (Amaranthus retroflexus), Russian thistle (Salsola iberica), chamomile (scentless chamomile, Matricaria inodora), speedwell (bird's-eye speedwell, Veronica persica), barley, spring (spring barley, Hordeum vulgare), wheat, spring (spring wheat, Triticum aestivum), buckwheat, wild (wild buckwheat, Polygonum convolvulus), mustard, wild (wild mustard, Sinapis arvensis), oat, wild (wild oat, Avena fatua), radish, wild (wild radish, Raphanus raphanistrum), windgrass (Apera spica-venti), barley, winter (winter barley, Hordeum vulgare), and wheat, winter (winter wheat, Triticum aestivum) were planted into a silt loam soil and treated preemergence with test chemicals formulated in a non-phytotoxic solvent mixture which included a surfactant. At the same time, these same crop and weed species were planted in pots containing the planting medium comprising spaghnum peat moss, vermiculite, wetting agent and starter nutrients and treated with postemergence applications of the test chemicals formulated in the same manner. Plants ranged in height from 2 to 18 cm (1- to 4-leaf stage).
(§2) Treated plants and controls were maintained in a controlled growth environment for 14 to 21 days after which time all species were compared to controls and visually evaluated. Plant response ratings, summarized in Table D, are based on a scale of 0 to 100 where 0 is no effect and 100 is complete control. A dash (-) response means no test result.

[3] = system: foxtail, green (green foxtail, Setaria viridis); test: Test D pre-/postemergence: foxtail, green
Source text: as §1, §2

[4] = system: goosegrass (Eleusine indica); test: Test C pre-/postemergence: goosegrass
Source text: Seeds of plant species selected from blackgrass (Alopecurus myosuroides), bromegrass, downy (downy bromegrass, Bromus tectorum), foxtail, green (green foxtail, Setaria viridis), ryegrass, Italian (Italian ryegrass, Lolium multiflorum), winter wheat (Triticum aestivum), wild oat (Avena fatua), galium (catchweed bedstraw, Galium aparine), bermudagrass (Cynodon dactylon), surinam grass (Brachiaria decumbens), cocklebur (common cocklebur, Xanthium strumarium), corn (Zea mays), large crabgrass (Digitaria sanguinalis), woolly cupgrass (Eriochloa villosa), foxtail, giant (giant foxtail, Setaria faberii), goosegrass (Eleusine indica), johnsongrass (Sorghum halepense), kochia (Kochia scoparia), lambsquarters (Chenopodium album), morningglory (Ipomoea coccinea), nightshade (eastern black nightshade, Solanum ptycanthum), nutsedge, yellow (yellow nutsedge, Cyperus esculentus), pigweed (Amaranthus retroflexus), ragweed (common ragweed, Ambrosia elation), soybean (Glycine max), common (oilseed) sunflower (Helianthus annuus), Russian thistle (Salsola kali) and velvetleaf (Abutilon theophrasti) were planted into a blend of loam soil and sand and treated preemergence with test chemicals formulated in a non-phytotoxic solvent mixture which included a surfactant.
At the same time, plants selected from these crop and weed species and also barley (winter barley, Hordeum vulgare), canarygrass (Phalaris minor), chickweed (common chickweed, Stellaria media) windgrass (Apera spica-venti) and deadnettle (henbit deadnettle, Lamium amplexicaule) were planted in pots containing Redi-Earth® planting medium (Scotts Company, 14111 Scottslawn Road, Marysville, Ohio 43041) comprising spaghnum peat moss, vermiculite, wetting agent and starter nutrients and treated with postemergence applications of test chemicals formulated in the same manner. Plants ranged in height from 2 to 18 cm (1- to 4-leaf stage) for postemergence treatments.
Treated plants and controls were maintained in a greenhouse for 13 to 15 days, after which time all species were compared to controls and visually evaluated. Plant response ratings, summarized in Table C, are based on a scale of 0 to 100 where 0 is no effect and 100 is complete control. A dash (-) response means no test result.

[5] = system: galium (catchweed bedstraw, Galium aparine); test: Test D pre-/postemergence: galium
Source text: as §1, §2

[6] = system: bluegrass (annual bluegrass, Poa annua); test: Test D pre-/postemergence: bluegrass
Source text: as §1, §2

[7] = Flood (flooded paddy test), 125 g ai/ha, visual rating after 13 to 15 days
[8] = Flood (flooded paddy test), 250 g ai/ha, visual rating after 13 to 15 days
[9] = Postemergence, 31 g ai/ha, scale 0 to 100 (0 no effect, 100 complete control)
[10] = Postemergence, 62 g ai/ha, scale 0 to 100 (0 no effect, 100 complete control)
[11] = Postemergence, 125 g ai/ha, scale 0 to 100, 0 no effect, 100 complete control
[12] = Postemergence, 250 g ai/ha, scale 0 to 100 (0 no effect, 100 complete control)
[13] = Postemergence, 16 g ai/ha, scale 0 to 100
[14] = Preemergence, 16 g ai/ha, scale 0 to 100 (0 no effect, 100 complete control)
[15] = Preemergence, 31 g ai/ha, scale 0 to 100 (0 no effect, 100 complete control)
[16] = Preemergence, 62 g ai/ha, scale 0 to 100
[17] = Preemergence, 125 g ai/ha, scale 0 to 100
[18] = Preemergence, 250 g ai/ha, scale 0 to 100
[19] = Flood (flooded paddy test), 62 g ai/ha, visual rating after 13 to 15 days
[20] = Postemergence, 250 g ai/ha, scale 0 to 100

SMILES: CCc1nn(-c2ccc(C(F)(F)F)cc2)nc1Oc1cccc(OC(F)(F)F)c1 [Compound 125, 4-ethyl-5-[3-(trifluoromethoxy)phenoxy]-2-[4-(trifluoromethyl)phenyl]-2H-1,2,3-triazole]
- plant injury at 125 g/ha [1, 7]: 0%
- plant injury at 250 g/ha [1, 8]: 10%
- plant injury at 31 g/ha ([1]; Flood, 31 g ai/ha): 0%
- plant injury at 62 g/ha ([1]; Flood, 62 g ai/ha): 0%

SMILES: Cc1nn(-c2ccc(F)cc2)nc1Cc1ccnc(C(F)(F)F)c1 [Compound 16, 4-[[2-(4-fluorophenyl)-5-methyl-2H-1,2,3-triazol-4-yl]methyl]-2-(trifluoromethyl)pyridine]
- Plant response rating: Wheat, Winter [2, 9]: 10
- Plant response rating: Wheat, Winter [2, 10]: 15
- Plant response rating: Wheat, Winter [2, 11]: 20
- Plant response rating: Wheat, Winter [2, 12]: 25
- Plant response rating, Wheat, Winter [2, 13]: 5
- Plant response rating, Wheat, Winter [2, 14]: 0
- Plant response rating, Wheat, Winter [2, 15]: 0
- Plant response rating, Wheat, Winter [2, 16]: 0
- Plant response rating, Wheat, Winter [2, 17]: 0
- Plant response rating, Wheat, Winter [2, 18]: 0
- Plant response rating: Foxtail, Green [3, 9]: 30
- Plant response rating: Foxtail, Green [3, 10]: 80
- Plant response rating: Foxtail, Green [3, 11]: 90
- Plant response rating: Foxtail, Green [3, 12]: 95
- Plant response rating, Foxtail, Green [3, 13]: 30
- Plant response rating, Foxtail, Green [3, 14]: 25
- Plant response rating, Foxtail, Green [3, 15]: 100
- Plant response rating, Foxtail, Green [3, 16]: 100
- Plant response rating, Foxtail, Green [3, 17]: 100
- Plant response rating, Foxtail, Green [3, 18]: 100
- plant injury at 62 g/ha [1, 19]: 30%
- plant injury at 125 g/ha [1, 7]: 40%
- plant injury at 250 g/ha [1, 8]: 50%
- plant injury at 31 g/ha ([1]; Flood, 31 g ai/ha): 20%
- Plant response rating, Goosegrass [4, 9]: 5
- Plant response rating, Goosegrass [4, 10]: 5
- Plant response rating, Goosegrass [4, 11]: 10
- Plant response rating, Goosegrass [4, 20]: 10
- Plant response rating: Galium [5, 9]: 40
- Plant response rating: Galium [5, 10]: 50
- Plant response rating: Galium [5, 11]: 60
- Plant response rating: Galium [5, 12]: 70
- Plant response rating, Galium [5, 13]: 20
- Plant response rating, Galium [5, 14]: 0
- Plant response rating, Galium [5, 15]: 0
- Plant response rating, Galium [5, 17]: 20
- Plant response rating, Galium [5, 18]: 20
- Plant response rating: Bluegrass [6, 9]: 20
- Plant response rating: Bluegrass [6, 10]: 40
- Plant response rating: Bluegrass [6, 11]: 60
- Plant response rating: Bluegrass [6, 12]: 70
- Plant response rating, Bluegrass [6, 13]: 10
- Plant response rating, Bluegrass [6, 14]: 0
- Plant response rating, Bluegrass [6, 15]: 20
- Plant response rating, Bluegrass [6, 16]: 20
- Plant response rating, Bluegrass [6, 17]: 30
- Plant response rating, Bluegrass [6, 18]: 100

SMILES: Cc1nn(-c2ccc(C(F)(F)F)cc2)nc1Cc1cccc(C(F)(F)F)c1 [Compound 124]
- Plant response rating, Rice [1, 7]: 15
- Plant response rating, Rice [1, 8]: 20
- Plant response rating, Rice ([1]; Flood, 31 g ai/ha): 0
- Plant response rating, Rice ([1]; Flood, 62 g ai/ha): 0
- Plant response rating, Goosegrass ([4]; Postemergence, 16 g ai/ha, scale 0 to 100, 0 no effect, 100 complete control): 25
- Plant response rating, Goosegrass [4, 9]: 45
- Plant response rating, Goosegrass [4, 10]: 55
- Plant response rating, Goosegrass [4, 11]: 65

SMILES: Cc1nn(-c2ccc(C(F)(F)F)cc2)nc1Cc1ccnc(C(F)(F)F)c1 [Compound 47, 4-[[5-methyl-2-[4-(trifluoromethyl)phenyl]-2H-1,2,3-triazol-4-yl]methyl]-2-(trifluoromethyl)pyridine]
- plant injury at 62 g/ha [1, 19]: 50%
- plant injury at 125 g/ha [1, 7]: 60%
- plant injury at 250 g/ha [1, 8]: 60%
- plant injury at 31 g/ha ([1]; Flood, 31 g ai/ha): 30%
- Plant response rating, Goosegrass [4, 9]: 5
- Plant response rating, Goosegrass [4, 10]: 35
- Plant response rating, Goosegrass [4, 11]: 70
- Plant response rating, Goosegrass [4, 20]: 75
- Plant response rating, Goosegrass ([4]; Preemergence, 31 g ai/ha, scale of 0 to 100, 0 is no effect, 100 is complete control): 98
- Plant response rating, Goosegrass ([4]; Preemergence, 62 g ai/ha, scale of 0 to 100, 0 is no effect, 100 is complete control): 100
- Plant response rating, Goosegrass ([4]; Preemergence, 125 g ai/ha, scale 0 to 100, 0 no effect, 100 complete control): 100
- Plant response rating, Goosegrass ([4]; Preemergence, 250 g ai/ha, scale 0 to 100, 0 no effect, 100 complete control): 100

SMILES: COc1nn(-c2ccc(C(F)(F)F)cc2)nc1Cn1ccc(C(F)(F)F)n1 [Compound 17, 4-methoxy-2-[4-(trifluoromethyl)phenyl]-5-[[3-(trifluoromethyl)-1H-pyrazol-1-yl]methyl]-2H-1,2,3-triazole]
- plant injury at 62 g/ha [1, 19]: 15%
- plant injury at 125 g/ha [1, 7]: 35%
- plant injury at 250 g/ha [1, 8]: 45%
- plant injury at 31 g/ha ([1]; Flood, 31 g ai/ha): 10%
